Read-outs that look alike come from different tables or passages of the source.
Experiments:
ORL-1 receptor = molecular target: T1, ORL-1 receptor (Homo sapiens, UniProt P41146); test: ORL1 receptor binding assay ([3H]nociceptin); details: for Ki: calculated from IC50 and Kd of [3H]nociceptin; for IC50: membrane of human ORL-1 expression cells, [3H]nociceptin 0.5 nM
T1 construct: expressed in transfected cells
Protocol: ORL1 Receptor Binding Assay
A cell membrane suspension obtained from human ORL-1 expression cells was adjusted with Tris buffer [50 mM Tris, 2 mM EDTA, 0.1 mM (p-Amidinophenyl)methanesulfonyl Fluoride Hydrochloride (p-APMSF), 2 mg/ml BSA] to membrane protein amount of about 25 μg/ml (2.5 μg/well). This was mixed with [^3H]nociceptin (diluted with Tris buffer to a final concentration of 0.5 nM) and test compound (diluted with Tris buffer to a final concentration of 10 nM-10 μM), and the mixture was incubated at room temperature for 60 min. The membrane was recovered on a G/F-B filter (Packard, Unifilter 96GF/B) using a cell harvester and the reaction was stopped. After washing 3 times, the filter was dried at 42° C. for 1 hr. A scintillation solution (Packard, microscint-20) was added and the radioactivity (Packard, Top count A9912V) was assayed.
(§1) The nonspecific binding was the binding in the presence of 1 μM nociceptin and the difference between the total binding and nonspecific binding was taken as the specific binding. IC50 was calculated from inhibition of specific binding at each concentration of the compound, and Ki value of the test compound was calculated from this value and Kd value of [^3H]nociceptin.

μ receptor = molecular target: T2, μ receptor (Rattus norvegicus, UniProt P33535); test: μ receptor binding assay ([3H]DAMGO); details: for Ki: calculated from IC50 and Kd of [3H]DAMGO; for IC50: rat cerebrum membrane, [3H]DAMGO 1 nM
T2 construct: Rat cerebrum membrane standard sample; from tissue; host or cells: rat cerebrum membranes
T2 sequence (P33535 whole entry): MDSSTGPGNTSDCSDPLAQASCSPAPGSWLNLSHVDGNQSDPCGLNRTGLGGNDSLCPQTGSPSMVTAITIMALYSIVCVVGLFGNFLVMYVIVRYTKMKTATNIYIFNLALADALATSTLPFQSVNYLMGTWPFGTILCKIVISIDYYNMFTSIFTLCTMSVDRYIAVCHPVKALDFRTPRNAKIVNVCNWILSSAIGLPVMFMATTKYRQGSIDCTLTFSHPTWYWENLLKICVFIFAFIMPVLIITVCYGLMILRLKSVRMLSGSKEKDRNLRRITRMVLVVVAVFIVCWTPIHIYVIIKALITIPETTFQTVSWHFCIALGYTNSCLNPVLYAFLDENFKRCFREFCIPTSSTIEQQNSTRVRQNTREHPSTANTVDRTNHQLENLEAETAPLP
Protocol: Rat cerebrum membrane standard sample (final concentration 0.755 mg·protein/ml), [^3H]DAMGO (Try-D-Ala-Gly-NMe-Phe-Gly-ol) [diluted with Tris buffer (50 mM Tris-HCl, 0.1 mM p-APMSF, 2 mg/ml BSA (pH=7.4)) to a final concentration of 1 nM] and test compound (diluted with Tris buffer to a final concentration of 10 nM-10 μM) were mixed, and the mixture was incubated at room temperature for 90 min. The membrane was recovered on a G/F-B filter (same as above) using a cell harvester and the reaction was stopped. After washing 3 times, the filter was dried at 42° C. for 1 hr. A scintillation solution (same as above) was added and the radioactivity (same as above) was assayed.
as §1, with “10” for “1”, “naloxone” for “nociceptin”, “[^3H]DAMGO.” for “[^3H]nociceptin.”

Mice = test: Hot-plate test; type: in vivo; details: Mus musculus, 1 h, oral, 60 min after administration, 55.5°C, read-out: Hot-plate M.E.D. (minimum effective dose)
Protocol: Mice (Crj, ICR, 4-week-old, male) were placed on a hot-plate (temperature 55.5±0.5° C.) and the time until the mice jumped and tried to run away was recorded. The mice were grouped according to the time and body weight so that the groups were evenly membered. The test compound was suspended in a 0.5% methylcellulose (MC) solution and orally administered to mice. After 60 min, the mice were again placed on a hot-plate and the time until they licked the hindlimb or jumped and tried to run away was recorded. The significant difference from the group administered with solvent was analyzed with ANOVA followed by Dunnett two-tailed test.

allodynia model = test: Allodynia test (intrathecal nociceptin, tactile stimulation); type: in vivo, Mice; details: Mus musculus, read-out: Allodynia M.E.D. (minimum effective dose)
Protocol: Mice (Crj, ICR, 4-week-old, male) were intrathecally administered with nociceptin (50 pg/5 μl) without anesthesia. For 20 min after administration and at 5 min intervals, an area from lateral region to tail of the mice was rubbed with a brush and the response of the mice was observed. The evaluation followed the criteria of 0; no change, 1; run or cry upon tactile stimulation, and 2; cry loud or dash away upon tactile stimulation. The test compound was suspended in a 0.5% MC solution and orally administered 60 min before nociceptin administration. The significant difference of the score of each administration group at 20 min after nociceptin administration from the group administered with solvent was analyzed with Mann-Whitny U-test.

[1] = mice, oral, 60 min before nociceptin 50 pg i.t., score at 20 min

T1 sequence (P41146 whole entry): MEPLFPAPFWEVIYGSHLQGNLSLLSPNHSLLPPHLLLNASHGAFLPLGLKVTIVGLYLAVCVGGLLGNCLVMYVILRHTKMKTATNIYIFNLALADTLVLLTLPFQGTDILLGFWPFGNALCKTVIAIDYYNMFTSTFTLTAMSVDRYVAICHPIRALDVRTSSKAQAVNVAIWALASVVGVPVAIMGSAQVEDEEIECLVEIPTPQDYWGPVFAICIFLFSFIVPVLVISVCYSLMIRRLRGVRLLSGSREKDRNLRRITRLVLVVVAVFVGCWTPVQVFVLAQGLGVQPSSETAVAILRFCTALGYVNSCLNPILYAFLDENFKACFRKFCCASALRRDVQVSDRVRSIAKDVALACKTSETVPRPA

Ki (ORL-1 receptor) [nM]	IC50 (ORL-1 receptor) [nM]	melting point [°C]	Ki (μ receptor) [nM]	IC50 (μ receptor) [nM]	SMILES	minimal effective dose (Mice) [mg/kg]	minimal effective dose (allodynia model; [1]) [mg/kg]	minimal effective dose (allodynia model; po) [mg/kg]
7	120		570	1520	CCc1ccc(OCc2ccccc2C(=O)Nc2ccc3nc(C)cc(N)c3c2)cc1.Cl [Example 1, N-(4-amino-2-methyl-6-quinolyl)-2-[(4-ethylphenoxy)methyl]-benzamide hydrochloride]	1	0.3	
6	110	286	259	690	Cc1cc(N)c2cc(NC(=O)c3ccccc3COc3ccc(C#N)cc3)ccc2n1.Cl [Example 16, N-(4-amino-2-methyl-6-quinolyl)-2-[(4-cyanophenoxy)methyl]benzamide hydrochloride]	3	0.1	
129	2520	285	419	1110	COc1ccc(CCc2ccccc2C(=O)Nc2ccc3nc(C)cc(N)c3c2)cc1.Cl [Example 84]	> 10	< 3	
5	90	252	565	1440	Cc1cc(N)c2cc(NC(=O)c3ccccc3COc3ccc(Br)cc3)ccc2n1.Cl [Example 33, N-(4-amino-2-methyl-6-quinolyl)-2-[(4-bromophenoxy)methyl]benzamide hydrochloride]		0.3	
2	40		464	1260	CCc1cc(N)c2cc(NC(=O)c3ccccc3COc3ccc(Cl)cc3)ccc2n1.Cl [Example 49]	1	0.3	
79	1470		417	1110	Cc1cc(N)c2cc(NC(=O)c3ccccc3COc3ccccc3)ccc2n1.Cl [Example 3, N-(4-amino-2-methyl-6-quinolyl)-2-(phenoxymethyl)benzamide hydrochloride]	30	3	
4	90	220	393	1040	Cc1cc(N)c2cc(NC(=O)c3ccccc3COc3ccc(C(F)(F)F)cc3)ccc2n1.Cl [Example 18, N-(4-amino-2-methyl-6-quinolyl)-2-[(4-trifluoromethylphenoxy)methyl]benzamide hydrochloride]		0.3	
8	140		888	2370	CCCc1ccc(OCc2ccccc2C(=O)Nc2ccc3nc(C)cc(N)c3c2)cc1.Cl [Example 34, N-(4-amino-2-methyl-6-quinolyl)-2-[(4-propylphenoxy)methyl]benzamide hydrochloride]	3	0.3	

The next lines start with the compound.

SMILES	Ki (ORL-1 receptor) [nM]	IC50 (ORL-1 receptor) [nM]	melting point [°C]	Ki (μ receptor) [nM]	IC50 (μ receptor) [nM]	minimal effective dose (Mice) [mg/kg]	minimal effective dose (allodynia model; [1]) [mg/kg]	minimal effective dose (allodynia model; po) [mg/kg]
Cc1cc(N)c2cc(NC(=O)c3ccccc3COc3ccc(Cl)c(Cl)c3)ccc2n1.Cl [Example 26, N-(4-amino-2-methyl-6-quinolyl)-2-[(3,4-dichlorophenoxy)methyl]benzamide hydrochloride]	4	80	223	479	1220	1	0.3	
Cc1cc(N)c2cc(NC(=O)c3ccccc3CCCCCOc3ccccc3)ccc2n1.Cl [Example 64]	73	1390	253	1380	3610		> 3	
CCc1ccc(OCc2ccccc2C(=O)Nc2ccc3nc(CC)cc(N)c3c2)c(Cl)c1 [Example 90]	5	110		442	1180	3		
Cc1cc(N)c2cc(NC(=O)c3ccccc3COc3ccc(Cl)cc3Cl)ccc2n1.Cl [Example 2, N-(4-amino-2-methyl-6-quinolyl)-2-[(2,4-dichlorophenoxy)methyl]benzamide hydrochloride]	4	70	262	497	1330	1	0.3	
Cc1cc(N)c2cc(NC(=O)c3ccccc3COc3ccc(Cl)c(C)c3)ccc2n1.Cl [Example 42, N-(4-amino-2-methyl-6-quinolyl)-2-[(4-chloro-3-methylphenoxy)methyl]benzamide hydrochloride]	4	80		745	1990	1	0.3	
COc1cccc(OCc2ccccc2C(=O)Nc2ccc3nc(C)cc(N)c3c2)c1OC.Cl [Example 8, N-(4-amino-2-methyl-6-quinolyl)-2-[(2,3-dimethoxyphenoxy)methyl]benzamide hydrochloride]	50	940	196	183	490		3	
COc1ccc(OCc2ccccc2C(=O)Nc2ccc3nc(C)cc(N)c3c2)cc1.Cl [Example 4, N-(4-amino-2-methyl-6-quinolyl)-2-[(4-methoxyphenoxy)methyl]benzamide hydrochloride]			276	453	1260	< 3		< 1
Cc1cc(N)c2cc(NC(=O)c3ccccc3COc3ccc([N+](=O)[O-])cc3)ccc2n1 [Example 7, N-(4-amino-2-methyl-6-quinolyl)-2-[(4-nitrophenoxy)methyl]benzamide]			148	346	960	3	0.3	
Cc1cccc(OCc2ccccc2C(=O)Nc2ccc3nc(C)cc(N)c3c2)c1 [Example 9, N-(4-amino-2-methyl-6-quinolyl)-2-[(3-methylphenoxy)methyl]benzamide]	16	320		764	2030	< 3	1	
Cc1cc(C)cc(OCc2ccccc2C(=O)Nc2ccc3nc(C)cc(N)c3c2)c1.Cl [Example 5, N-(4-amino-2-methyl-6-quinolyl)-2-[(3,5-dimethylphenoxy)methyl]benzamide hydrochloride]	28	520	265	505	1340		3	
Cc1cc(N)c2cc(NC(=O)c3ccccc3COc3ccc4c(c3)CCO4)ccc2n1.Cl [Example 93]	7	120	233				> 0.3	
Cc1ccc(OCc2ccccc2C(=O)Nc2ccc3nc(C)cc(N)c3c2)c(Cl)c1.Cl [Example 43, N-(4-amino-2-methyl-6-quinolyl)-2-[(2-chloro-4-methylphenoxy)methyl]benzamide hydrochloride]	5	110		785	2100	1	0.3	

Reference: patent US6410561B1, “Amide derivatives and nociceptin antagonists” (Japan Tobacco Inc., priority 1998, dated 2002)
